From the NIST ThermoML archive (doi:10.1021/je060271a)

Conditions: Liquid, Vibrating tube method

CCCC(=O)OCC(COC(=O)CCC)(COC(=O)CCC)COC(=O)CCC [pentaerythritol tetrabutyrate]
Conditions	mass density [kg/m3]
283.15 K, 30442 kPa	1076
283.15 K, 30478 kPa	1076.1
283.15 K, 30509 kPa	1076
283.15 K, 30540 kPa	1076.1
283.15 K, 30577 kPa	1076.1
283.15 K, 30608 kPa	1076.1
283.15 K, 30639 kPa	1076.1
283.15 K, 30670 kPa	1076.1
283.15 K, 30707 kPa	1076.1
283.15 K, 30738 kPa	1076.1
283.15 K, 30775 kPa	1076.2
283.15 K, 30806 kPa	1076.3
283.15 K, 30838 kPa	1076.2
283.15 K, 30875 kPa	1076.1
283.15 K, 30906 kPa	1076.2
283.15 K, 30938 kPa	1076.3
283.15 K, 30975 kPa	1076.3
283.15 K, 31008 kPa	1076.3
283.15 K, 31040 kPa	1076.3
283.15 K, 31071 kPa	1076.3
283.15 K, 31110 kPa	1076.4
283.15 K, 31141 kPa	1076.4
283.15 K, 31179 kPa	1076.4
283.15 K, 31211 kPa	1076.3
283.15 K, 31243 kPa	1076.4
283.15 K, 31282 kPa	1076.4
283.15 K, 31314 kPa	1076.4
283.15 K, 31346 kPa	1076.4
283.15 K, 31385 kPa	1076.5
283.15 K, 31418 kPa	1076.6
283.15 K, 31450 kPa	1076.4
283.15 K, 31490 kPa	1076.5
283.15 K, 31523 kPa	1076.5
283.15 K, 31556 kPa	1076.5
283.15 K, 31595 kPa	1076.5
283.15 K, 31628 kPa	1076.7
283.15 K, 31662 kPa	1076.7
283.15 K, 31695 kPa	1076.6
283.15 K, 31735 kPa	1076.6
283.15 K, 31768 kPa	1076.7
283.15 K, 31807 kPa	1076.7
283.15 K, 31841 kPa	1076.9
283.15 K, 31875 kPa	1076.7
283.15 K, 31909 kPa	1076.8
283.15 K, 31949 kPa	1076.8
283.15 K, 31983 kPa	1076.9
283.15 K, 32023 kPa	1076.9
283.15 K, 32057 kPa	1076.8
283.15 K, 32092 kPa	1076.8
283.15 K, 32133 kPa	1076.8
283.15 K, 32167 kPa	1076.9
283.15 K, 32202 kPa	1076.9
283.15 K, 32236 kPa	1076.9
283.15 K, 32278 kPa	1077
283.15 K, 32312 kPa	1076.9
283.15 K, 32347 kPa	1077
283.15 K, 32390 kPa	1077
283.15 K, 32417 kPa	1077.1
283.15 K, 32453 kPa	1077.1
283.15 K, 32494 kPa	1077.2
283.15 K, 32536 kPa	1077.1
283.15 K, 32572 kPa	1077.1
283.15 K, 32614 kPa	1077.1
283.15 K, 32650 kPa	1077
283.15 K, 32692 kPa	1077.2
283.15 K, 32728 kPa	1077.1
283.15 K, 32764 kPa	1077.2
283.15 K, 32806 kPa	1077.1
283.15 K, 32845 kPa	1077.2
283.15 K, 32881 kPa	1077.2
283.15 K, 32918 kPa	1077.2
283.15 K, 32954 kPa	1077.3
283.15 K, 32998 kPa	1077.3
283.15 K, 33034 kPa	1077.2
283.15 K, 33071 kPa	1077.4
283.15 K, 33114 kPa	1077.3
283.15 K, 33151 kPa	1077.4
283.15 K, 33188 kPa	1077.3
283.15 K, 33232 kPa	1077.5
283.15 K, 33270 kPa	1077.5
283.15 K, 33308 kPa	1077.4
283.15 K, 33355 kPa	1077.6
283.15 K, 33391 kPa	1077.5
283.15 K, 33429 kPa	1077.5
283.15 K, 33473 kPa	1077.6
283.15 K, 33511 kPa	1077.5
283.15 K, 33548 kPa	1077.5
283.15 K, 33586 kPa	1077.6
283.15 K, 33631 kPa	1077.7
283.15 K, 33670 kPa	1077.7
283.15 K, 33708 kPa	1077.7
283.15 K, 33754 kPa	1077.7
283.15 K, 33792 kPa	1077.6
283.15 K, 33838 kPa	1077.7
283.15 K, 33878 kPa	1077.8
283.15 K, 33917 kPa	1077.8
283.15 K, 34179 kPa	1077.9
283.15 K, 34232 kPa	1078
283.15 K, 34278 kPa	1078
283.15 K, 34325 kPa	1078
283.15 K, 34380 kPa	1078.1
283.15 K, 34408 kPa	1078.1
283.15 K, 34413 kPa	1078.1
283.15 K, 34443 kPa	1078.1
283.15 K, 34447 kPa	1078.3
283.15 K, 34450 kPa	1078
283.15 K, 34451 kPa	1078
283.15 K, 34455 kPa	1078.1
283.15 K, 34530 kPa	1078.2
283.15 K, 34544 kPa	1078.1
283.15 K, 34545 kPa	1078.1
283.16 K, 104.2 kPa	1059
283.16 K, 104.7 kPa	1059.1
283.16 K, 105.7 kPa	1059
283.16 K, 107.3 kPa	1059
283.16 K, 108.9 kPa	1059.1
283.16 K, 113.9 kPa	1059
283.16 K, 119.6 kPa	1059.1
283.16 K, 129.7 kPa	1059
283.16 K, 145 kPa	1059.2
283.16 K, 173.9 kPa	1059.1
283.16 K, 201.7 kPa	1059.2
283.16 K, 220.1 kPa	1059.2
283.16 K, 241.7 kPa	1059.2
283.16 K, 261.3 kPa	1059.2
283.16 K, 284.4 kPa	1059.2
283.16 K, 305.4 kPa	1059.2
283.16 K, 329.3 kPa	1059.3
283.16 K, 363.7 kPa	1059.2
283.16 K, 391.3 kPa	1059.1
283.16 K, 432.3 kPa	1059.2
283.16 K, 466.5 kPa	1059.2
283.16 K, 498.2 kPa	1059.2
283.16 K, 527.5 kPa	1059.2
283.16 K, 550.1 kPa	1059.3
283.16 K, 577.4 kPa	1059.3
283.16 K, 602.2 kPa	1059.4
283.16 K, 628.6 kPa	1059.3
283.16 K, 657.3 kPa	1059.4
283.16 K, 694.8 kPa	1059.2
283.16 K, 725.1 kPa	1059.3
283.16 K, 756.3 kPa	1059.4
283.16 K, 786.4 kPa	1059.4
283.16 K, 816.8 kPa	1059.4
283.16 K, 854 kPa	1059.4
283.16 K, 886.5 kPa	1059.4
283.16 K, 919.6 kPa	1059.5
